In series [1] the target is T1, Steroid 17-alpha-hydroxylase/17,20 lyase (Homo sapiens, UniProt P05093).
T1 sequence (P05093 whole entry): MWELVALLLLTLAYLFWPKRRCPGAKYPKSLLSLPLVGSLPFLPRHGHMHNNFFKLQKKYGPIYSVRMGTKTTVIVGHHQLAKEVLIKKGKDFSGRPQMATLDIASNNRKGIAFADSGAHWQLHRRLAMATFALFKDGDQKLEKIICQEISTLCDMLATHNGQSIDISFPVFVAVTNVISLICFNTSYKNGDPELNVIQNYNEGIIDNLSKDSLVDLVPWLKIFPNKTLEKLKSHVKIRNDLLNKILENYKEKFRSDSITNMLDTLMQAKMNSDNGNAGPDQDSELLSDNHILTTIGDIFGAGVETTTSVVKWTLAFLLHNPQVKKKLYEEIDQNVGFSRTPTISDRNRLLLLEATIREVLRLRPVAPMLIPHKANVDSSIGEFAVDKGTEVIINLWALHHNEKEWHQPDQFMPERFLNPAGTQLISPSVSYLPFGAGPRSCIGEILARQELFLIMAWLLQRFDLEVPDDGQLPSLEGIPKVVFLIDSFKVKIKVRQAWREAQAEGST
In words: Inhibition of CYP17 in human testicular microsomes using 17alpha-hydroxypregnenolone as substrate assessed as decrease in DHEA levels at 10 nM after 90 mins by ELISA relative to control. As to conditions: 1.5 h. Also noted: species or system Testis.

In series [2] the target is T1, Steroid 17-alpha-hydroxylase/17,20 lyase. The experiment in a line: Inhibition of CYP17 in human testicular microsomes using 17alpha-hydroxypregnenolone as substrate assessed as decrease in DHEA levels after 90 mins by ELISA. Details: species or system Testis.
Series [3] concerns the target T2, CYP21 (steroid 21-hydroxylase) (Homo sapiens, UniProt P08686).
T2 sequence (P08686 whole entry): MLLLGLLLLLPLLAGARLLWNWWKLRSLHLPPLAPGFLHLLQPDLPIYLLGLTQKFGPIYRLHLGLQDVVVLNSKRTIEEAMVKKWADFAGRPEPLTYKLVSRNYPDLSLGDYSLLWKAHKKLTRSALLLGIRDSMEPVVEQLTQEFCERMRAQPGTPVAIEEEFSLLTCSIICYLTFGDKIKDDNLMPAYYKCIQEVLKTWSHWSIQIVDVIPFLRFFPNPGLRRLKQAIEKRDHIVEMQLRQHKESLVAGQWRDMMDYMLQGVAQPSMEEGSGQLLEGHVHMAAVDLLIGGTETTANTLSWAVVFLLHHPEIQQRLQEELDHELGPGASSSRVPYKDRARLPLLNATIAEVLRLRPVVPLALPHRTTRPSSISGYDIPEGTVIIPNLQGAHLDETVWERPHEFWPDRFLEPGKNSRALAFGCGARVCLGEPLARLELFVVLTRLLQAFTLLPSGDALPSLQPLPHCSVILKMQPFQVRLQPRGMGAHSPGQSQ
In words: Inhibition of human CYP21 transfected in HEK293 cells assessed as decrease in conversion of progesterone to 11-deoxycorticosterone preincubated for 5 hrs followed by progesterone addition measured after 20 hrs by ELISA. Format: cell-based. Details: concentration or dose not given beside the values. Conditions: HEK293 cells transfected with human CYP21, probe progesterone.

A short description of series [4]: Half life in human liver microsomes at 1 uM by LC-MS/MS analysis.

Molecules are shown by their SMILES. Some results are limits rather than exact numbers.

For the compound `Cc1cncc(C2=CC[C@H]3[C@@H]4CCC5N(C)C(=O)COC[C@]5(C)[C@H]4CC[C@]23C)c1` (stereo partly specified), the inhibition at 0.01 µM in series [1] was 1 to 50%.
Take `CCOc1cncc(C2=CC[C@H]3[C@@H]4CC[C@H]5CCCCC[C@]5(C)[C@H]4CC[C@]23C)c1`: in series [1], the inhibition at 0.01 µM lay within 1 to 50%.
The same measure, in the same setting: under `Cc1ccncc1C1=CC[C@H]2[C@@H]3CC[C@H]4CCCCC[C@]4(C)[C@H]3CC[C@]12C` stands 1 to 50%; under `C[C@]12CCC(=O)NC[C@@H]1CC[C@@H]1[C@@H]2CC[C@]2(C)C(n3ccnc3)=CC[C@@H]12`, 50 to 80%.
In the case of `C=Cc1cncc(C2=CC[C@H]3[C@@H]4CCN5C(=O)CCCC[C@]5(C)[C@H]4CC[C@]23C)c1`, the inhibition at 0.01 µM in series [1] was 50 to 80%. In addition, in series [2], the IC50 was no more than 0.011 µM.
In the case of `COc1cncc(C2=CC[C@H]3[C@@H]4CCC5=CCN(C)CC[C@]5(C)[C@H]4CC[C@]23C)c1`, the inhibition at 0.01 µM in series [1] is 1 to 50%.
Same read-out and setting: under `CCCOc1cncc(C2=CC[C@H]3[C@@H]4CCC5=CCN(C)CC[C@]5(C)[C@H]4CC[C@]23C)c1` stands 1 to 50%.
`CCCOc1cncc(C2=CC[C@H]3[C@@H]4CCN5C(=O)CCCC[C@]5(C)[C@H]4CC[C@]23C)c1`: in series [1], the inhibition at 0.01 µM lay in the range of 50 to 80%. In series [2], the IC50 is no more than 0.011 µM.
`C[C@]12CCNC(=O)CC[C@@H]1CC[C@@H]1[C@@H]2CC[C@]2(C)C(c3cccnc3)=CC[C@@H]12`: in series [1], the inhibition at 0.01 µM was 50 to 80%.
Still for that read-out and setting: under `C[C@]12CC[C@H]3[C@@H](CCN4CCCCC[C@]34C)[C@@H]1CC=C2c1cccnc1` stands 1 to 50%.
As to `Cc1cncc(C2=CC[C@H]3[C@@H]4CC[C@H]5CCCCC[C@]5(C)[C@H]4CC[C@]23C)c1`, in series [1], the inhibition at 0.01 µM was in the range of 1 to 50%.
Still for that read-out and setting: next, `COc1cncc(C2=CC[C@H]3[C@@H]4CC[C@H]5CCCCC[C@]5(C)[C@H]4CC[C@]23C)c1`: 50 to 80%.
The same measure, in the same setting: under `CN1CC[C@@]2(C)C(=CC1=O)CC[C@@H]1[C@@H]2CC[C@]2(C)C(n3cnc4ccccc43)=CC[C@@H]12` stands 1 to 50%; under `C[C@]12CC[C@H]3[C@@H](CC[C@H]4CNC(=O)CC[C@@]43C)C1=CC=C2c1cccnc1`, 50 to 80%.
For `CCc1cncc(C2=CC[C@H]3[C@@H]4CC[C@H]5CCCCC[C@]5(C)[C@H]4CC[C@]23C)c1`, the inhibition at 0.01 µM in series [1] was 1 to 50%.
Take `Cc1cncc(C2=CC[C@H]3[C@@H]4CC[C@H]5CCOCC[C@]5(C)[C@H]4CC[C@]23C)c1`: in series [1], the inhibition at 0.01 µM is 50 to 80%. In addition, the IC50 in series [2] was no more than 0.011 µM.
For `Cc1cncc(C2=CC[C@H]3[C@@H]4CCC5=CC(=O)N(C)CC[C@]5(C)[C@H]4CC[C@]23C)c1` the same measures were 50 to 80% and no more than 0.011 µM.
Regarding `C[C@]12CC(=O)C[C@@H]1CC[C@@H]1[C@@H]2CC[C@]2(C)C(n3ccnn3)=CC[C@@H]12`, the inhibition at 0.01 µM in series [1] fell in the range of 1 to 50%.
Still for that read-out and setting: under `C[C@]12CC[C@H]3[C@@H](CC[C@H]4CNC(=O)CC[C@@]43C)C1=CC=C2n1ccnn1` stands 1 to 50%; under `COc1cncc(C2=CC[C@H]3[C@@H]4CCN5CCCCC[C@]5(C)[C@H]4CC[C@]23C)c1`, 1 to 50%.
On to `C[C@]12CCCNC[C@@H]1CC[C@@H]1[C@@H]2CC[C@]2(C)C(n3ccnn3)=CC[C@@H]12`, for which, in series [1], the inhibition at 0.01 µM is 1 to 50%.
Take `C[C@]12CCNCC[C@@H]1CC[C@@H]1[C@@H]2CC[C@]2(C)C(n3ccnn3)=CC[C@@H]12`: in series [1], the inhibition at 0.01 µM was in the range of 1 to 50%.
On the same count and under the same terms, next, `CCc1cncc(C2=CC[C@H]3[C@@H]4CC=C5CCCC[C@]5(C)[C@H]4CC[C@]23C)c1`: 1 to 50%.
With `CC(=O)O[C@H]1CC[C@@]2(C)[C@@H](CC[C@H]3C4=CC=C(n5ccnc5)[C@@]4(C)CC[C@@H]32)C1`, in series [1], the inhibition at 0.01 µM is no less than 80%. In addition, in series [2], the IC50 was no more than 0.011 µM.
For `CC(=O)O[C@H]1CC[C@@]2(C)[C@@H](CC[C@H]3C4=CC=C(c5cccnc5)[C@@]4(C)CC[C@@H]32)C1`, in series [1], the inhibition at 0.01 µM is no less than 80%.
In the case of `Cc1cncc(C2=CC[C@H]3[C@@H]4CCN5CCCCC[C@]5(C)[C@H]4CC[C@]23C)c1`, the inhibition at 0.01 µM in series [1] lay in the range of 1 to 50%.
Still for that read-out and setting: next, `C[C@]12CC[C@H]3[C@@H](CC[C@H]4CNC(=O)CC[C@@]43C)C1=CC=C2n1ccnc1`: 50 to 80%; `CCCOc1cncc(C2=CC[C@H]3[C@@H]4CCC5=CC(=O)N(C)CC[C@]5(C)[C@H]4CC[C@]23C)c1`: 50 to 80%; `COc1cncc(C2=CC[C@H]3[C@@H]4CC=C5CCCC[C@]5(C)[C@H]4CC[C@]23C)c1`: 50 to 80%.
On the same count and under the same terms, next, `C[C@]12CCCCC[C@@H]1CC[C@@H]1[C@@H]2CC[C@]2(C)C(c3cnccc3Cl)=CC[C@@H]12`: 1 to 50%.
Regarding `C[C@]12CC[C@H](O)C[C@@H]1CC[C@@H]1[C@@H]2CC[C@]2(C)C(n3ccnn3)=CC[C@@H]12`, in series [1], the inhibition at 0.01 µM is no less than 80%. Moreover, the IC50 in series [2] is no more than 0.011 µM.
Consider `COC1CC[C@@]2(C)[C@@H](CC[C@@H]3[C@@H]2CC[C@]2(C)C(n4ccnn4)=CC[C@@H]32)C1` (stereo partly specified), for which, in series [1], the inhibition at 0.01 µM was 1 to 50%.
Same read-out and setting: next, `CCOc1cncc(C2=CC[C@H]3[C@@H]4CC[C@H]5CCOCC[C@]5(C)[C@H]4CC[C@]23C)c1`: 50 to 80%; `C[C@]12CC[C@H]3[C@@H](CC[C@H]4CC(=O)NCC[C@@]43C)C1=CC=C2n1ccnn1`: 1 to 50%.
`COc1cncc(C2=CC[C@H]3[C@@H]4CCC5=CC(=O)NCC[C@]5(C)[C@H]4CC[C@]23C)c1`: in series [1], the inhibition at 0.01 µM was in the range of 50 to 80%. For the same compound, in series [2], the IC50 is no more than 0.011 µM.
Take `CCc1cncc(C2=CC[C@H]3[C@@H]4CCC5=CCN(C)CC[C@]5(C)[C@H]4CC[C@]23C)c1`: in series [1], the inhibition at 0.01 µM is 1 to 50%.
On the same count and under the same terms, next, `COC1CC[C@@]2(C)[C@@H](CC[C@@H]3[C@@H]2CC[C@]2(C)C(c4cncc(C)c4)=CC[C@@H]32)C1` (stereo partly specified): 1 to 50%; `C[C@]12CCNC(=O)C=C1CC[C@@H]1[C@@H]2CC[C@]2(C)C(n3cnc4ccccc43)=CC[C@@H]12`: 1 to 50%.
Take `C[C@]12CC(O)C[C@@H]1CC[C@@H]1[C@@H]2CC[C@]2(C)C(n3ccnn3)=CC[C@@H]12` (stereo partly specified): the inhibition at 0.01 µM in series [1] is no more than 11%. In addition, the IC50 in series [2] lay within 0.05 to 0.08 µM.
As for `COC1CC[C@@]2(C)[C@@H](CC[C@@H]3[C@@H]2CC[C@]2(C)C(c4cccnc4)=CC[C@@H]32)C1` (stereo partly specified), the inhibition at 0.01 µM in series [1] was 1 to 50%.
The same measure, in the same setting: next, `CCOc1cncc(C2=CC[C@H]3[C@@H]4CCC5N(C)C(=O)COC[C@]5(C)[C@H]4CC[C@]23C)c1` (stereo partly specified): 1 to 50%.
Turning to `C[C@]12CCCCC[C@@H]1CC[C@@H]1[C@@H]2CC[C@]2(C)C(c3cccnc3)=CC[C@@H]12`, in series [1], the inhibition at 0.01 µM is 1 to 50%.
The same measure, in the same setting: next, `C[C@]12CCC(=O)NC[C@@H]1CC[C@@H]1[C@@H]2CC[C@]2(C)C(n3ccnn3)=CC[C@@H]12`: 1 to 50%; `Cc1cncc(C2=CC[C@H]3[C@@H]4CCC5=CN(C)CCC[C@]5(C)[C@H]4CC[C@]23C)c1`: 1 to 50%; `Cc1cncc(C2=CC[C@H]3[C@@H]4CC=C5CCCC[C@]5(C)[C@H]4CC[C@]23C)c1`: 50 to 80%.
On to `C[C@]12CC[C@@H](NC(=O)C3CC3)CC1=CC[C@H]1C3CC=C(c4cccnc4)[C@@]3(C)CC[C@@H]12` (single isomer, unassigned), for which the inhibition at 20 h in series [3] was no less than 50%. In addition, the half-life at 1 µM in series [4] was 1 to 50 min. The concentration for half-maximal inhibition (IC50) in series [2] was no more than 0.011 µM.

These data come from ChEMBL document CHEMBL3882724 (2013).
